Drawing on PMC10018336 (Nucleic Acids Research, 2023), this text covers Kd for 1 molecule.

What all share (assay): microscale thermophoresis, RED-NHS labelled protein
What all share (type): binding
A general note: MST reads how a fluorescent partner responds to local heating, with and without ligand.

Test [1] concerns the target T1, Sso2081 (Crn1) (Saccharolobus solfataricus, UniProt Q7LYJ6, K106A).
T1 construct: full length aa 1-178; recombinant in E. coli Rosetta (DE3); N-terminal His6 tag cut with PreScission protease; homodimer
T1 sequence (Q7LYJ6 1-178 K106A): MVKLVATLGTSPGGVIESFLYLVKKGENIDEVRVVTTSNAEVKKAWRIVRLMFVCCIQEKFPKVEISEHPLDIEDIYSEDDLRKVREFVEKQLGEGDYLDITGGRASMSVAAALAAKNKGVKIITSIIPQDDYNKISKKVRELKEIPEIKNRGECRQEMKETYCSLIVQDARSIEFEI

The target in test [2] is T2, Sso2081 (Crn1) (Saccharolobus solfataricus, UniProt Q7LYJ6, S11A).
T2 construct: full length aa 1-178; recombinant in E. coli Rosetta (DE3); N-terminal His6 tag cut with PreScission protease; homodimer
T2 sequence (Q7LYJ6 1-178 S11A): T1 sequence (Q7LYJ6 1-178 K106A) with S11A, A106K

Test [3] deals with T3, Sso2081 (Crn1) (Saccharolobus solfataricus, UniProt Q7LYJ6, D75A).
T3 construct: full length aa 1-178; recombinant in E. coli Rosetta (DE3); N-terminal His6 tag cut with PreScission protease; homodimer
T3 sequence (Q7LYJ6 1-178 D75A): T1 sequence (Q7LYJ6 1-178 K106A) with D75A, A106K

For test [4], the target named is T4, Sso2081 (Crn1) (Saccharolobus solfataricus, UniProt Q7LYJ6, E17A).
T4 construct: full length aa 1-178; recombinant in E. coli Rosetta (DE3); N-terminal His6 tag cut with PreScission protease; homodimer
T4 sequence (Q7LYJ6 1-178 E17A): T1 sequence (Q7LYJ6 1-178 K106A) with E17A, A106K

Test [5] addresses T5, Sso2081 (Crn1) (Saccharolobus solfataricus, UniProt Q7LYJ6, T10A).
T5 construct: full length aa 1-178; recombinant in E. coli Rosetta (DE3); N-terminal His6 tag cut with PreScission protease; homodimer
T5 sequence (Q7LYJ6 1-178 T10A): T1 sequence (Q7LYJ6 1-178 K106A) with T10A, A106K

Changes are numbered by the printed parent chain.

As usually defined, the Kd is the constant that tells how readily two partners part at equilibrium. High values mean lower affinity, low ones higher affinity. `Nc1ncnc2c1ncn2[C@@H]1O[C@@H]2COP(=O)(O)O[C@H]3[C@@H](O)[C@H](n4cnc5c(N)ncnc54)O[C@@H]3COP(=O)(O)O[C@H]3[C@@H](O)[C@H](n4cnc5c(N)ncnc54)O[C@@H]3COP(=O)(O)O[C@H]3[C@@H](O)[C@H](n4cnc5c(N)ncnc54)O[C@@H]3COP(=O)(O)O[C@H]2[C@H]1O` [cA4]: the Kd at Sso2081 (Crn1) [1] turned out to be 22.8 ± 10.1 nM; on Sso2081 (Crn1) [2], 43.2 ± 25.5 nM; on Sso2081 (Crn1) [3], 75.5 ± 34.1 nM; at Sso2081 (Crn1) [4], 17 ± 1.2 nM; on Sso2081 (Crn1) [5], 17.3 ± 9.2 nM.
